Test results reported in patent US20160326098A1, “Pharmaceutically Active Compound for Use as Anti-inflammatory Agent” (Pax Forschung GmbH, priority 2013, published 2016).

What was measured:
Assay type in all cases: in vivo
nitrite/nitrate (NOx) = test: Tissue nitrite/nitrate level, mice with gastric injury without inflammation; details: gastric and duodenal tissue, 1.11 mmol/kg, vs control group A and group C, FIGS. 7a/7b
Method: […] This assay depends on the reduction of nitrate to nitrite, which is then converted into a colored azo dye compound that is detected spectrophotometrically at 540 nm.
First experiments regarding the effect of the compound of formula (I) and a pharmaceutical composition comprising the compound of formula (I) (clear aqueous solution of compound of formula (I) at pH 4.8), respectively, on gastric injury without inflammation were conducted on mice. 48 animals were randomly allocated into three groups. Group A (n=16) served as sham-operated controls. Samples of all animals were drawn on day 1 of the clinical tests. On day 2 the animals of group B (n=16) were force-fed acetylsalicylic acid (ASS) (1.11 mmol/kg body weight). Group C (n=16) was force-fed 1.11 mmol/kg body weight of the compound according to the invention. Group A only received the respective solvent (25% ethanol in water). One day after the gavage, additional samples were drawn. Fluorescence confocal endomicroscopy was performed to examine the microvasculature and morphologic changes of the mucosa of the distal colon, and full-thickness tissue samples and venous blood samples were taken to determine the biochemical changes in the colon and plasma. The effects were determined by way of measurement of body weight, blood gas analysation and biopsy. […]

xanthine oxidase enzyme = test: Xanthine oxidase enzyme activity in tissue, mice with TNBS-induced colitis; details: gastric and colon tissue, 1.11 mmol/kg, FIGS. 14a/14b
Method: (§1) Colonic inflammation was induced by intracolonic administration of TNBS (2,4,6-trinitrobenzenesulfonic acid) (40 mg/kg in 0.25 ml of 25% aqueous ethanol) through an 8-cm-long soft plastic catheter under transient diethylether anesthesia. In the sham-operated groups, only the vehicle for TNBS was administered. The animals were deprived of food, but not water, for 12 h before the enemas.
The XOR activity was determined in the ultrafiltered, concentrated supernatant by fluorometric kinetic assay based on the conversion of pterine to isoxanthopterine in the presence (total XOR) or absence (xanthine oxidase activity) of the electron acceptor methylene blue.
The above-described clinical studies were repeated with animals having colitis which was induced as described above. […] Two days after the enema the effects of the treatment were determined by measurement of body weight, blood gas analysis and biopsy. […] Surgery was performed to allow registration of the hemodynamic parameters at 1 h intervals for 6 h (cardiac output [CO] data were measured only at the end of the experiments). […] In addition, fluorescence confocal endomicroscopy was performed to examine the microvasculature and morphologic changes of the mucosa of the distal colon, and full-thickness tissue samples and venous blood samples were taken to determine the biochemical changes in the colon and plasma.

myeloperoxidase (MPO) = test: Tissue myeloperoxidase activity, mice with TNBS-induced colitis; details: gastric and colon tissue, 1.11 mmol/kg, one day after treatment, vs untreated colitis and ASS groups, FIGS. 13a/13b
Method: as §1
Colon biopsies kept on ice were homogenized in phosphate buffer (pH 7.4) containing 50 mM Tris-HCl (Reanal, Budapest, Hungary), 0.1 mM EDTA, 0.5 mM dithiothreitol, 1 mM phenylmethylsulfonyl fluoride, 10 μg/ml soybean trypsin inhibitor, and 10 μg/ml leupeptin (Sigma Aldrich GmbH, Munich, Germany). […] The activity of myeloperoxidase (MPO) was measured on the pellet of the homogenate.
The activity of MPO as a marker of tissue leukocyte infiltration was measured on the pellet of the homogenate. […] The reaction led to the hydrogen peroxide-dependent oxidation of tetramethylbenzidine, which could be detected spectrophotometrically at 450 nm (UV-1601 spetrophotometer; Shimadzu, Kyoto, Japan). Myeloperoxidase activities were measured at 37° C.; the reaction was stopped after 5 minutes by the addition of 0.2 ml of H2SO4 (2 M), and the resulting data were referred to the protein content. […]

[1] = tested on: collagen-induced arthritis (CIA); test: Collagen-induced arthritis (CIA), clinical evaluation; details: mice, 1.11 mmol/kg force-fed from first immunization until end
Method: Further clinical studies were performed with animals having collagen-induced arthritis (CIA). In these studies, mice were used as test animals. At the age of eight weeks, the animals were immunized intradermally at the base of the tail with 50 μl of bovine collagen II emulsified in 50 μl of complete Freund's adjuvant. A second booster immunization was performed 3 weeks later, when 50 μl of incomplete Freund's adjuvant was administered with or without the same volume of collagen H. The animals were randomly allocated into experimental groups wherein group 1 served as control, having no arthritis, group 2 served as second control having arthritis, but receiving no further treatment, and group 3 having arthritis and being treated with compound according to the invention. The animals of group 3 were force-fed 1.11 mmol/kg body weight of the compound according to the invention from the first immunization until the end of the experiments. The severity of CIA was evaluated using a clinical scoring system; inflammatory hyperalgesia was detected with thermal stimulation. […]

Structure (SMILES)	nitrite/nitrate level (nitrite/nitrate (NOx))	activity of xanthine oxidase enzyme (xanthine oxidase enzyme)	myeloperoxidase enzyme activity (myeloperoxidase (MPO))	severity of CIA (clinical scoring system of Nandakumar) ([1]; vs untreated arthritis group 2, FIG. 36)	incidence of CIA ([1]; same in untreated arthritis group 2, FIG. 36) [%]
CC(=O)Oc1ccccc1C(=O)O [ASS, acetylsalicylic acid, reference compound]	significant difference in the nitrite/nitrate level	only a slight decrease in activity			
CC(=O)Oc1ccccc1C(=O)NC(CO)(CO)CO [compound according to the invention]		enzyme activity comparable to that of healthy animals	decrease of activity	less serious arthritis	90
